# Data reported in patent US20200316077A1, “PHARMACEUTICAL COMPOSITION FOR THE TREATMENT OF CANCER” (IMPETIS BIOSCIENCES LTD., priority 2017, published 2020).
# Tests used:
# [1] = test system: CT26 cells (colon cancer); assay: CT26 Colon Cancer Model: tumor suppression in mice; assay type: in vivo; details: BALB/c mice, 3 mg/kg, PO, BID, Day 22, n = 12
# Method: (§1) Tumor Suppression Activity of Adenosine A2A (Compound 31) and A2B (Compound 169) Antagonists in Xenograft Models of Cancer
# (§2) General Protocol: 6-8 weeks old BALB/c mice were acclimated and on Day 1 of the study, the mice were injected with 50 μL of medium containing 5×10^4 4T1 cells (breast cancer) or 5×10^5 CT26 cells (colon cancer). On day 8 or 9, the mice were segregated into different groups and treated orally with either vehicle (1% Tween-80+0.5% Carboxymethylcellulose in water) or test compound [(Compound 32 5-Amino-3-[2-[4-[2-fluoro-4-(2-methoxyethoxy)phenyl]piperazin-1-yl]ethyl]-8-(2-furyl)-1-methyl-[1,2,4]triazolo[5,1-f]purin-2-one (32) & Phosphoric acid mono-{2-cyano-6-oxo-1-propyl-8-[1-(3-trifluoromethyl-benzyl)-1H-pyrazol-4-yl]-1,6-dihydro-purin-7-ylmethyl} ester (335)] in vehicle. The treatment was BID for 22 days (colon cancer) or 28 days (breast cancer). At the end of the study, the tumor volume was measured as (length X breadth)/2. Data were presented as % reduction compared to the tumor volume in vehicle treated animals.
# [2] = test system: 4T1 cells (breast cancer); assay: 4T1 Breast Cancer Model: tumor suppression in mice; assay type: in vivo; details: BALB/c mice, 3 mg/kg, PO, BID, Day 28, n = 12
# Method: as §1, §2
smiles,measurement,setting,value
"CCCn1c(C#N)nc2nc(-c3cnn(Cc4cccc(C(F)(F)F)c4)c3)n(COP(=O)(O)O)c2c1=O [Compound 335, Phosphoric acid mono-{2-cyano-6-oxo-1-propyl-8-[1-(3-trifluoromethyl-benzyl)-1H-pyrazol-4-yl]-1,6-dihydro-purin-7-ylmethyl} ester]",% decrease in Tumor growth vs. vehicle On Day 22,[1],23.90%
same,% decrease in Tumor growth vs. vehicle On Day 28,[2],46.40%
